Experimental data taken from patent US8236828B2, “Insecticidal compounds” (Syngenta Crop Protection LLC, priority 2007, dated 2012).

Key:
Format in all cases: in vivo
[1] = tested on: Spodoptera littoralis (Egyptian Cotton Leafworm); assay: Spodoptera littoralis cotton leaf disc spray test; conditions: same protocol, 200 ppm, 3 DAT
Method: (§1) This Example illustrates the pesticidal/insecticidal properties of compounds of formula (I). Tests were performed as follows:
Spodoptera littoralis (Egyptian Cotton Leafworm):
(§2) • Cotton leaf discs were placed on agar in a 24-well microtiter plate and sprayed with test solutions at an application rate of 200 ppm. After drying, the leaf discs were infested with 5 L1 larvae. The samples were checked for mortality, feeding behaviour, and growth regulation 3 days after treatment (DAT). • The following compounds gave at least 80% control of Spodoptera littoralis: A1, A2, A3, A4, A5, A6, A10, A13, A17, A19. Heliothis virescens (Tobacco Budworm): • Eggs (0-24 h old) were placed in 24-well microtiter plate on artificial diet and treated with test solutions at an application rate of 200 ppm (concentration in well 18 ppm) by pipetting. After an incubation period of 4 days, samples were checked for egg mortality, larval mortality, and growth regulation. • The following compounds gave at least 80% control of Heliothis virescens: A1, A2, A3, A4, A5, A6, A7, A9, A10, A11, A12, A14, A17, A18, A19, A21. Plutella xylostella (Diamond Back Moth): • 24-well microtiter plate (MTP) with artificial diet was treated with test solutions at an application rate of 200 ppm (concentration in well 18 ppm) by pipetting. After drying, the MTP's were infested with L2 larvae (7-12 per well). […]

[2] = tested on: Diabrotica balteata (Corn Root Worm); assay: Diabrotica balteata larvae test on artificial diet; conditions: same protocol, 200 ppm, 5 days
[3] = tested on: Heliothis virescens (Tobacco Budworm); assay: Heliothis virescens egg test on artificial diet; conditions: same protocol, 200 ppm, 4 days
Method: as §1, §2

[4] = tested on: Plutella xylostella (Diamond Back Moth); assay: Plutella xylostella larvae test on artificial diet; conditions: same protocol, 200 ppm, 6 days
Method: as §1, §2

Measured: damage to the test organisms

COC(=O)c1ccc(C(=O)Nc2cc(C(=O)Nc3c(C)cc(C4(C(F)(F)F)CC(c5ccc(Cl)cc5)=NO4)cc3C)ccc2C#N)cc1 (centres unmarked) [A20]
little or no damage: all assays above

CSc1cc(C(F)(F)F)ccc1C(=O)Nc1cc(C(=O)Nc2c(C)cc(C3(C(F)(F)F)CC(c4ccc(Cl)cc4)=NO3)cc2C)ccc1C#N (centres unmarked) [A8]
little or no damage: all assays above
